Patent publication US11020399B2, “Intermediates useful in the synthesis of compounds as modulators of protein kinases” (Rhizen Pharmaceuticals SA, priority 2011, dated 2021)

Experiments:
Assay type in all cases: biochemical
[1] = biological target: PI3kα (Homo sapiens, UniProt P42336); experiment: Fluorescent (HTRF) determination of PI3 kinase enzyme activity, PI3Kα; settings: 1 uM
Procedure, shortened: (§1)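 HTRF detection of PIP3 from PIP2 (1.38 μM in reaction mix) with 10 mM MgCl2, 5 mM DTT; compound preincubated with enzyme 10 min, then ATP (400 μM addition) 30 min at room temperature. Percent inhibition versus blank and enzyme controls at 1 μM (α, β) and 0.3 or 0.1 μM (γ, δ); IC50 also fitted.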

[2] = biological target: PI3kβ (Homo sapiens, UniProt P42338); experiment: Fluorescent (HTRF) determination of PI3 kinase enzyme activity, PI3Kβ; settings: 1 uM
Procedure, shortened: as §1

[3] = biological target: PI3kγ (Homo sapiens, UniProt P48736); experiment: Fluorescent (HTRF) determination of PI3 kinase enzyme activity, PI3Kγ; settings: for inhibition at 0.3 µM: 300 nM (Examples 1-59); for inhibition at 0.1 µM / % inhibition (PI3kγ) 100 nM: 100 nM (Examples 60-137); for % inhibition (PI3kγ) 100 nM: 0.1 µM
Procedure, shortened: as §1

[4] = biological target: PI3kδ (Homo sapiens, UniProt O00329); experiment: Fluorescent (HTRF) determination of PI3 kinase enzyme activity, PI3Kδ; settings: for inhibition at 0.3 µM: 300 nM (Examples 1-59)
Procedure, shortened: as §1

PI3kβ, sequence (P42338 whole entry): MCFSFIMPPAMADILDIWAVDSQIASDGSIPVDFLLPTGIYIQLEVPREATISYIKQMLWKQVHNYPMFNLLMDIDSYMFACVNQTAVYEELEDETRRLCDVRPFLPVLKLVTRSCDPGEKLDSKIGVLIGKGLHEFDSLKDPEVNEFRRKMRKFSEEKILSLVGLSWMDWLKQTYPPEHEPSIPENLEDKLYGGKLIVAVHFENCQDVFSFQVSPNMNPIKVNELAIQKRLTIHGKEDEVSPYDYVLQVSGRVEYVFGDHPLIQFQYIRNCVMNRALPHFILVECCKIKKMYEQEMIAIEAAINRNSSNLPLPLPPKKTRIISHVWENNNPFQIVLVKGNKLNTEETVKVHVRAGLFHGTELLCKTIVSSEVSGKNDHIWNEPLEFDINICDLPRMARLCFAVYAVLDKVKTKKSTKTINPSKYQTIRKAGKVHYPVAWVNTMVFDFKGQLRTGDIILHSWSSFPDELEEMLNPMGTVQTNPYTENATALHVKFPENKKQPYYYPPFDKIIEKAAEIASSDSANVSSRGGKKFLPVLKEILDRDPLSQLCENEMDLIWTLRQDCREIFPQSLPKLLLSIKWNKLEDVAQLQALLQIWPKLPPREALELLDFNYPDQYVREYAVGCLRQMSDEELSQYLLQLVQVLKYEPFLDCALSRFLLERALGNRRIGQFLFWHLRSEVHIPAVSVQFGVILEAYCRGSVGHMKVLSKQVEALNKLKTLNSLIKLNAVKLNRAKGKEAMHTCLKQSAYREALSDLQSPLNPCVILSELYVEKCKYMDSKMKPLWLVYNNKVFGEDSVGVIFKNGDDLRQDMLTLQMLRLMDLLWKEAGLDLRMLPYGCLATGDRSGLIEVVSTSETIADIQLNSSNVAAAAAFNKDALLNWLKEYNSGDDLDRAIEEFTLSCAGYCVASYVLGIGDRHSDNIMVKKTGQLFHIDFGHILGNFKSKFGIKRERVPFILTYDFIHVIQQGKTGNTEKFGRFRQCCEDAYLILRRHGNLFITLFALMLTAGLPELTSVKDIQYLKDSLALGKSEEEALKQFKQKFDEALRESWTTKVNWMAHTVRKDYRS
PI3kβ, sequence (P27986 whole entry partner): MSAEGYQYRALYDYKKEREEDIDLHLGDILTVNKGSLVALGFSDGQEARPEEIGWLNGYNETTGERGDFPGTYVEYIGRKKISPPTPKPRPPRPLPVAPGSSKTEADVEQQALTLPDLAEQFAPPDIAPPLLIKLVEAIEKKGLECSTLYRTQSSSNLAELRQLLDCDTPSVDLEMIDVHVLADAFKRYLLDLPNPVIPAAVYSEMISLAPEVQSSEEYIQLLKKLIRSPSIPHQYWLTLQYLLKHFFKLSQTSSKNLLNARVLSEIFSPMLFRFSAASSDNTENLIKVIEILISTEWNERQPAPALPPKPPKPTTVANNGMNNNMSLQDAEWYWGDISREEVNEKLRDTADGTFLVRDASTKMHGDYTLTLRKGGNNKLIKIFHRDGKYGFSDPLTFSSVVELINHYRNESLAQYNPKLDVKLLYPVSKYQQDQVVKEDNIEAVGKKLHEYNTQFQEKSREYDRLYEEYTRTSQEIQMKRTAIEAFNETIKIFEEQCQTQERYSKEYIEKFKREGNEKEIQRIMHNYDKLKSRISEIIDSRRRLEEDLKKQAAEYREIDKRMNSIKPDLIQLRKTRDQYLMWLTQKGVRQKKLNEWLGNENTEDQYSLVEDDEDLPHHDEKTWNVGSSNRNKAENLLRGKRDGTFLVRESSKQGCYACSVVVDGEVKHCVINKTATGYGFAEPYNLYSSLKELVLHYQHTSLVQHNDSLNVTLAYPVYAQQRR
PI3kα, sequence (P42336 whole entry): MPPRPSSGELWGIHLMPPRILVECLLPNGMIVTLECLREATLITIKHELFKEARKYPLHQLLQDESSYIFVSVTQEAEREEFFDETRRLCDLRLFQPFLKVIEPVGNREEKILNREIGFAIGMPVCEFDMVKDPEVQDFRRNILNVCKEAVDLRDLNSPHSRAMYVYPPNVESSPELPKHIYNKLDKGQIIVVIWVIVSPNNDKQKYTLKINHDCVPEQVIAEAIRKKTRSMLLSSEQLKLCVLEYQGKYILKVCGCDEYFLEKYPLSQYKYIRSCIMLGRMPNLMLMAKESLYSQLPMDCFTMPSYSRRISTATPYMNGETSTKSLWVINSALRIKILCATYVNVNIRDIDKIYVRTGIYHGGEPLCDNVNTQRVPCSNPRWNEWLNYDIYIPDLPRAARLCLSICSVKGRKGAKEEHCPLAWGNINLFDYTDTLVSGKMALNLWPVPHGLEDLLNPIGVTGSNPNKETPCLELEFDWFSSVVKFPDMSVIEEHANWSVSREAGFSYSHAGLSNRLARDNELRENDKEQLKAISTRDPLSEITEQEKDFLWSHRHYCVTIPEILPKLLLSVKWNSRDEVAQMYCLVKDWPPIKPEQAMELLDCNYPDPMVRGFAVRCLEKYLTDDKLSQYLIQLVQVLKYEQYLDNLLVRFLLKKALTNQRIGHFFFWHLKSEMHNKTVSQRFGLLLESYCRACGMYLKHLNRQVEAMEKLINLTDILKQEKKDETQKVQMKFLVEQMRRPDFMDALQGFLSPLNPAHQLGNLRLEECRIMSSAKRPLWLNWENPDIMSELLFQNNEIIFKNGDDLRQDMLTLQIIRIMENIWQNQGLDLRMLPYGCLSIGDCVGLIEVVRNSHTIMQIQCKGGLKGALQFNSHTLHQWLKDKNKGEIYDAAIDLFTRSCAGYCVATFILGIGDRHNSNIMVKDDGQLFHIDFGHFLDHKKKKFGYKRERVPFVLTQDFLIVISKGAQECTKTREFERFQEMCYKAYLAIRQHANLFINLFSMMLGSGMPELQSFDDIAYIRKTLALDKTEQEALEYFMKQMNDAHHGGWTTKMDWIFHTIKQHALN
PI3kα, sequence (P27986 whole entry partner): as the sequence (P27986 whole entry partner) above
PI3kγ, sequence (P48736 whole entry): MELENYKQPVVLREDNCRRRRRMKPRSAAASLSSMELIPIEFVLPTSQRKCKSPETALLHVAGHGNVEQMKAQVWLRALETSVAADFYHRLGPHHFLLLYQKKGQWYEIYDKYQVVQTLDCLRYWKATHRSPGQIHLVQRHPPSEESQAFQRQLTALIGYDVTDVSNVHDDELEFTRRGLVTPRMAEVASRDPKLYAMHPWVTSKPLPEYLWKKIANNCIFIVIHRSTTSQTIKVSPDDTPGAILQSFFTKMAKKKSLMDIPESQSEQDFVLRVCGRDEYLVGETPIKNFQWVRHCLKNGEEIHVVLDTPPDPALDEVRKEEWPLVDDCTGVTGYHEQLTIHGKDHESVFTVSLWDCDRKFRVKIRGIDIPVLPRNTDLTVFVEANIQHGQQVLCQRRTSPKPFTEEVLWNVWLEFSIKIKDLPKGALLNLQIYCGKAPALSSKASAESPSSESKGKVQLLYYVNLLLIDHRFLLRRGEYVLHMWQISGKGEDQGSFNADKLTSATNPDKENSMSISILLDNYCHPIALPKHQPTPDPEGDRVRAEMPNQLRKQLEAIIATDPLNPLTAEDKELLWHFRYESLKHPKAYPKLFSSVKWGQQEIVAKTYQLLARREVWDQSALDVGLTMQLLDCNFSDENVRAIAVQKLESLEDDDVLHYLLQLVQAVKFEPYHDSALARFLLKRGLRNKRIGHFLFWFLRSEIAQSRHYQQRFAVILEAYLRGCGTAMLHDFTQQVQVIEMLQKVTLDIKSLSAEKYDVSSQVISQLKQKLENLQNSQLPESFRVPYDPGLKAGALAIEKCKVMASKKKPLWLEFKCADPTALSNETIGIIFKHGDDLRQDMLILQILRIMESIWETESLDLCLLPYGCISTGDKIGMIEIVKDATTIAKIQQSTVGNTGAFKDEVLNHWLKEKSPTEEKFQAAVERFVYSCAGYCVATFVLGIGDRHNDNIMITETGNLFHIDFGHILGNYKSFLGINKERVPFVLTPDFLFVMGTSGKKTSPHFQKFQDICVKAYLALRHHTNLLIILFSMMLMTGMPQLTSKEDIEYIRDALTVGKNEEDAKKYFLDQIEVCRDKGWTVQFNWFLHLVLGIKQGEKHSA
PI3kδ, sequence (O00329 whole entry): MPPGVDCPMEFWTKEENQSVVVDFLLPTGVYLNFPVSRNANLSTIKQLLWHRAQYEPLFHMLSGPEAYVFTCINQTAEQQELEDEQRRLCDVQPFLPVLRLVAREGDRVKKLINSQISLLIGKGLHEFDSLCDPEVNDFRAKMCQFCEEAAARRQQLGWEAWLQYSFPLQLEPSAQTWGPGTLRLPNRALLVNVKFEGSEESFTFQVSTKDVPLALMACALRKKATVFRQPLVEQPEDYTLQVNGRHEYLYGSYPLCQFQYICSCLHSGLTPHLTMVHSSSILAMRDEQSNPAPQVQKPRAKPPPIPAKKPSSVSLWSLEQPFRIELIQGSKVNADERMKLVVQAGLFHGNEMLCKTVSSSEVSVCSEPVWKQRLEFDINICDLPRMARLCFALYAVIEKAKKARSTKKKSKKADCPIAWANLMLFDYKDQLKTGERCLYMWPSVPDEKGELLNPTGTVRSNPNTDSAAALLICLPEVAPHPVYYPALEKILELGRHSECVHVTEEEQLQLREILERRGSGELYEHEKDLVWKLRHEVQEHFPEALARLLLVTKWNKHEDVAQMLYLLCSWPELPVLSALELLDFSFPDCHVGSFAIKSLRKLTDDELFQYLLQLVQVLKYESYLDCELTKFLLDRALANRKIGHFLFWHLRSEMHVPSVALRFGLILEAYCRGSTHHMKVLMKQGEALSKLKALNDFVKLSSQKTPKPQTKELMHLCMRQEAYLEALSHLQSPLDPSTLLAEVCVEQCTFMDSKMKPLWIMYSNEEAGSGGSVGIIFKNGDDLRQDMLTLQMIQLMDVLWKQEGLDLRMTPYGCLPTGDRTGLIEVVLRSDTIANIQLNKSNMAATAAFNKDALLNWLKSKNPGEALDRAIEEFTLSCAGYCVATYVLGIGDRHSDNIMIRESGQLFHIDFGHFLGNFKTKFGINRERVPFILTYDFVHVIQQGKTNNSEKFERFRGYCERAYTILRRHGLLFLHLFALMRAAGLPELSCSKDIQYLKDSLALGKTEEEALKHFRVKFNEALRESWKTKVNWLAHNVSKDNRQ
PI3kδ, sequence (P27986 whole entry partner): as the sequence (P27986 whole entry partner) above

| % inhibition (PI3kα) 1 uM [1] | % inhibition (PI3kβ) 1 uM [2] | inhibition at 0.3 µM [3] [%] | inhibition at 0.3 µM [4] [%] | inhibition at 1 µM [1] [%] | inhibition at 1 µM [2] [%] | inhibition at 0.1 µM [3] [%] | inhibition at 0.1 µM ([4]; 100 nM (Examples 60-137)) [%] | IC50 [3] [nM] | % inhibition (PI3kγ) 100 nM [3] | IC50 [4] [nM] | % inhibition (PI3kδ) 100 nM ([4]; 100 nM (Examples 60-137), 0.1 µM) | SMILES |
| --- | --- | --- | --- | --- | --- | --- | --- | --- | --- | --- | --- | --- |
|  |  | 50 to 75 | 50 to 75 | 0 to 25 | 25 to 50 |  |  |  |  |  |  | Cc1nn(C(C)c2oc3cccc(F)c3c(=O)c2-c2cccc(F)c2)c2ncnc(N)c12 (stereo not drawn) [Example 33, 2-(1-(4-amino-3-methyl-1H-pyrazolo[3,4-d]pyrimidin-1-yl)ethyl)-5-fluoro-3-(3-fluorophenyl)-4H-chromen-4-one] |
|  |  | 50 to 75 | 50 to 75 | 0 to 25 | 25 to 50 |  |  |  |  |  |  | CCc1nn(C(C)c2oc3cccc(F)c3c(=O)c2-c2cccc(F)c2)c2ncnc(N)c12 (stereo not drawn) [Example 34, 2-(1-(4-amino-3-ethyl-1H-pyrazolo[3,4-d]pyrimidin-1-yl)ethyl)-5-fluoro-3-(3-fluorophenyl)-4H-chromen-4-one] |
|  |  | 75 to 100 | 25 to 50 | 0 to 25 | 50 to 75 |  |  |  |  |  |  | CC(c1oc2cccc(F)c2c(=O)c1-c1cccc(F)c1)n1nc(-c2cc3ccccc3s2)c2c(N)ncnc21 (stereo not drawn) [Example 36, 2-(1-(4-amino-3-(benzo[b]thiophen-2-yl)-1H-pyrazolo[3,4-d]pyrimidin-1-yl)ethyl)-5-fluoro-3-(3-fluorophenyl)-4H-chromen-4-one] |
|  |  | 50 to 75 | 0 to 25 | 0 to 25 | 25 to 50 |  |  |  |  |  |  | CC(c1oc2cccc(F)c2c(=O)c1-c1cccc(F)c1)n1nc(N2CCOCC2)c2c(N)ncnc21 (stereo not drawn) [Example 37, 2-(1-(4-amino-3-morpholino-1H-pyrazolo[3,4-d]pyrimidin-1-yl)ethyl)-5-fluoro-3-(3-fluorophenyl)-4H-chromen-4-one] |
|  |  | 0 to 25 | 50 to 75 | 25 to 50 | 25 to 50 |  |  |  |  |  |  | CC(c1oc2cccc(F)c2c(=O)c1-c1cccc(F)c1)n1nc(N(C)C)c2c(N)ncnc21 (stereo not drawn) [Example 38, 2-(1-(4-amino-3-(dimethylamino)-1H-pyrazolo[3,4-d]pyrimidin-1-yl)ethyl)-5-fluoro-3-(3-fluorophenyl)-4H-chromen-4-one] |
|  |  | 0 to 25 | 25 to 50 | 25 to 50 | 50 to 75 |  |  |  |  |  |  | CC(c1oc2cccc(F)c2c(=O)c1-c1cccc(F)c1)n1nc(N2CCCCC2)c2c(N)ncnc21 (stereo not drawn) [Example 39, 2-(1-(4-amino-3-(piperidin-1-yl)-1H-pyrazolo[3,4-d]pyrimidin-1-yl)ethyl)-5-fluoro-3-(3-fluorophenyl)-4H-chromen-4-one] |
|  |  | 0 to 25 | 50 to 75 | 25 to 50 | 50 to 75 |  |  |  |  |  |  | CC(C)Oc1ccc(-c2nn(C(C)c3oc4cccc(F)c4c(=O)c3-c3cccc(F)c3)c3ncnc(N)c23)cn1 (stereo not drawn) [Example 40, 2-(1-(4-amino-3-(6-isopropoxypyridin-3-yl)-1H-pyrazolo[3,4-d]pyrimidin-1-yl)ethyl)-5-fluoro-3-(3-fluorophenyl)-4H-chromen-4-one] |
|  |  | 50 to 75 | 50 to 75 | 25 to 50 | 25 to 50 |  |  |  |  |  |  | CSc1nn(C(C)c2oc3cccc(F)c3c(=O)c2-c2cccc(F)c2)c2ncnc(N)c12 (stereo not drawn) [Example 41, 2-(1-(4-amino-3-(methylthio)-1H-pyrazolo[3,4-d]pyrimidin-1-yl)ethyl)-5-fluoro-3-(3-fluorophenyl)-4H-chromen-4-one] |
| C (C=>25 to 50%) | D (D=0 to 25%) |  |  |  |  |  | 50 to 75 | 50 to 100 | B (B=>50 to 75%) | ≤ 50 |  | CC(c1oc2cccc(F)c2c(=O)c1-c1cccc(F)c1)n1nc(-c2ccc(N3CCOCC3)c(Cl)c2)c2c(N)ncnc21 (stereo not drawn) [Example 113, 2-(1-(4-amino-3-(3-chloro-4-morpholinophenyl)-1H-pyrazolo[3,4-d]pyrimidin-1-yl)ethyl)-5-fluoro-3-(3-fluorophenyl)-4H-chromen-4-one] |

The remaining lines, values behind:

| SMILES | % inhibition (PI3kα) 1 uM [1] | % inhibition (PI3kβ) 1 uM [2] | inhibition at 0.3 µM [3] [%] | inhibition at 0.3 µM [4] [%] | inhibition at 1 µM [1] [%] | inhibition at 1 µM [2] [%] | inhibition at 0.1 µM [3] [%] | inhibition at 0.1 µM ([4]; 100 nM (Examples 60-137)) [%] | IC50 [3] [nM] | % inhibition (PI3kγ) 100 nM [3] | IC50 [4] [nM] | % inhibition (PI3kδ) 100 nM ([4]; 100 nM (Examples 60-137), 0.1 µM) |
| --- | --- | --- | --- | --- | --- | --- | --- | --- | --- | --- | --- | --- |
| CC(c1oc2cccc(F)c2c(=O)c1-c1ccccc1)n1nc(-c2ccc(OC(F)F)c(F)c2)c2c(N)ncnc21 (stereo not drawn) [Example 32, 2-(1-(4-amino-3-(4-(difluoromethoxy)-3-fluorophenyl)-1H-pyrazolo[3,4-d]pyrimidin-1-yl)ethyl)-5-fluoro-3-phenyl-4H-chromen-4-one] | D (D=0 to 25%) | B (B=>50 to 75%) | 50 to 75 | 0 to 25 |  |  |  |  |  |  |  |  |
| CC(c1oc2cccc(F)c2c(=O)c1-c1cccc(F)c1)n1nc(-c2ccc(OC3CN(C(c4ccccc4)c4ccccc4)C3)c(F)c2)c2c(N)ncnc21 (stereo not drawn) [Example 44, 2-(1-(4-amino-3-(4-(1-benzhydrylazetidin-3-yloxy)-3-fluorophenyl)-1H-pyrazolo[3,4-d]pyrimidin-1-yl)ethyl)-5-fluoro-3-(3-fluorophenyl)-4H-chromen-4-one] |  |  | 25 to 50 | 25 to 50 | 0 to 25 | 0 to 25 |  |  |  |  |  |  |
| Cc1cc(-c2nn(C(C)c3oc4cccc(F)c4c(=O)c3-c3cccc(F)c3)c3ncnc(N)c23)ccc1OC(C)C (stereo not drawn) [Example 50, 2-(1-(4-amino-3-(4-isopropoxy-3-methylphenyl)-1H-pyrazolo[3,4-d]pyrimidin-1-yl)ethyl)-5-fluoro-3-(3-fluorophenyl)-4H-chromen-4-one] | D (D=0 to 25%) | C (C=>25 to 50%) | 50 to 75 | 75 to 100 |  |  |  |  |  |  |  |  |
| CCC(Nc1ncnc2[nH]cnc12)c1oc2cccc(F)c2c(=O)c1-c1ccccc1 (stereo not drawn) [Example 65, 2-(1-(9H-purin-6-ylamino)propyl)-5-fluoro-3-phenyl-4H-chromen-4-one] |  |  |  |  | 25 to 50 | 25 to 50 | 50 to 75 | 0 to 25 |  |  |  |  |
| CC(c1oc2cccc(F)c2c(=O)c1-c1ccc(F)cc1)n1cnc2c(N)nc(F)nc21 (stereo not drawn) [Example 107, 2-(1-(6-amino-2-fluoro-9H-purin-9-yl)ethyl)-5-fluoro-3-(4-fluorophenyl)-4H-chromen-4-one] |  |  |  |  | 0 to 25 | 25 to 50 | 25 to 50 | 0 to 25 |  |  |  |  |
| CC(c1oc2cccc(F)c2c(=O)c1-c1ccc(F)cc1)n1cnc2c(N3CCOCC3)ncnc21 (stereo not drawn) [Example 108, 5-fluoro-3-(4-fluorophenyl)-2-(1-(6-morpholino-9H-purin-9-yl)ethyl)-4H-chromen-4-one] |  |  |  |  | 25 to 50 | 0 to 25 | 25 to 50 | 25 to 50 |  |  |  |  |
| CC(c1oc2cccc(F)c2c(=O)c1-c1cccc(F)c1)n1cnc2c(N(C)C)ncnc21 (stereo not drawn) [Example 110, 2-(1-(6-(dimethylamino)-9H-purin-9-yl)ethyl)-5-fluoro-3-(3-fluorophenyl)-4H-chromen-4-one] |  |  |  |  | 0 to 25 | 25 to 50 |  |  | 50 to 100 | B (B=>50 to 75%) | ≤ 50 | A (A=>75 to 100%) |
| Cc1nc2ccc(-c3nn(C(C)c4oc5cccc(F)c5c(=O)c4-c4cccc(F)c4)c4ncnc(N)c34)cc2o1 (stereo not drawn) [Example 118, 2-(1-(4-amino-3-(2-methylbenzo[d]oxazol-6-yl)-1H-pyrazolo[3,4-d]pyrimidin-1-yl)ethyl)-5-fluoro-3-(3-fluorophenyl)-4H-chromen-4-one] |  |  |  |  | 25 to 50 | 0 to 25 | 25 to 50 | 25 to 50 |  |  |  |  |
